Test [1] has as its system bovine oocytes matured for 24 hours. In words: Parthenogenic activation of in vitro matured bovine oocytes (activation, pronuclear formation). Type of test: cell-based. The settings on record: for Activation of oocytes, result in words / Chromosome / pronuclear outcome, result in words: Experiment 1, 5 hours of culture, FIG. 1b-1d; for % Activation / % Pronuclear formation: oocytes matured 24 h, ionomycin 5 μM 4 min and/or DMAP for 5 hours, determined after 5 hours of culture. Here is the method:
Bovine oocytes were obtained at an abattoir and transported to the laboratory in saline (30-34° C., transport time 2-6 hr). Oocytes from small follicles (1-6 mm) were aspirated and matured according to the methods described in Sirard et al., 1988. Briefly, oocytes were diluted out of the follicular fluid with 3 dilutions of TL HEPES modified by removing glucose, adding 0.22 mM pyruvate and 1 mg/ml of BSA (Fraction V, Sigma Chemical CO, St. Louis, Mo.).
The oocytes were placed in 50 μl drops of TCM-199 (Earle's Salts; Gibco, Grand Island, N.Y.) supplemented with 10% heat treated fetal calf serum, 0.22 mM pyruvate, 5 μg/ml FSH-P (Scherring-Plough Animal Health Corp., Kenilworth, N.J.) and 1 μ/ml estradiol. Ten oocytes were incubated in a 50 μl drop under paraffin oil for 24 hours at 39° C. in 5% CO2 in air humidified atmosphere.
(§1) The cumulus was removed from matured oocytes by vortexing vigorously in 200 μl or TL-HEPES for 3 min. The denuded oocytes were diluted in 3 changes of TL-HEPES to separate the oocytes from the cumulus cells. Where indicated, the oocytes were exposed to 5 μM ionomycin (5 mM stock in DMSO; Calbiochem, La Jolla, Calif.) in TL-HEPES (1 mg/ml fatty acid free BSA) for 4 min. The oocytes were then diluted into TL-HEPES (30 mg/ml fatty acid BSA) for 5 min followed by dilution into TL-HEPES (1 mg/ml Fraction V BSA). The oocytes were then moved to 50 μl drops of embryonic cell development media (U.S. Pat. No. 5,096,822 to Rosenkrans et al., with or without DMAP (1.9 mM) for the indicated times (39° C., 5% CO2 in air). Embryonic cell development media contained 114.6 mM NaCl, 3.1 mM KCl, 5 mM hemi-calcium lactate, 0.4 mM Na pyruvate, 1 mM glutamine, 3 mg/ml fatty acid free BSA, MEM nonessential amino acids and BME amino acids.
Activation was evaluated at times indicated in each experiment. The oocytes were mounted on slides, fixed with acetic acid:alcohol (1:3) and observed with Nomarski optics. Special care was taken in determining if metaphase plates were metaphase II or aberrant metaphase III (Kubiak, 1989). Oocytes that contained a metaphase I or II plate were considered not activated. Oocytes that contained anaphase, telophase or metaphase […] plates or pronuclei were considered to be activated.
Experiment 1 determined the effect of sequential exposure of oocytes to ionomycin and DMAP. One level of ionomycin (5 μM) and DMAP (1.9 mM) was used throughout all studies. The oocytes were cultured for 5 hours after ionomycin incubation with or without DMAP. Control oocytes were cultured in embryonic cell development medium alone. Activation was determined after 5 hours of culture. […]
Experiment 3 was designed to determine the kinetics of activation when oocytes were exposed to ionomycin alone or to ionomycin followed by a 3 hour incubation in DMAP. At the end of the 3 hour incubation, oocytes in DMAP were diluted in TL-HEPES (1 mg/ml Fraction V BSA) and moved to embryonic cell development medium until mounting. A sample of oocytes from both treatments were mounted at 1, 2, 3, 4 and 5 hours after exposure to ionomycin to determine the activation state.
Experiment 4 was designed to determine the time at which DMAP is necessary for parthenogenic activation relative to the exposure to ionomycin. The oocytes were exposed to ionomycin and placed in embryonic cell development medium. At 0, 1, 2, 2.5, 3 and 4 hours after ionomycin exposure, oocytes were placed in embryonic cell development medium+DMAP. At 5 hours post ionomycin exposure, the oocytes were mounted to determine their activation state.

Test [2] shares this test system. In words: Parthenogenic development of activated oocytes (initial cleavage, blastocyst, blastocyst cell number). Type of test: cell-based. Particulars: for Development to Blastocyst (± se): after ionomycin 5 μM, day 7-8 of culture; for cell number in resulting parthenote blastocysts, Good / cell number in resulting parthenote blastocysts, Poor: after ionomycin. The method, then: as §1
In experiments that determined development potential of the parthenotes, activated oocytes were cultured for 7-8 days in embryonic cell development media. On the date after activation, initial cleavage was determined by visual observation. On day 4 of incubation 5% heat treated fetal calf serum was added to each drop. For some experiments, blastocysts were mounted and fixed in acetic acid:alcohol (1:3) and stained with 1% orcein dissolved in 40% acetic acid to determine cell numbers.
Experiments 2a and 2b determined the effect of time of incubation in DMAP on activation and development. In Experiment 2a, oocytes were incubated in DMAP for 15, 30, 60, 150 and 300 minutes. At the end of the incubation time indicated, oocytes were rinsed in TL-HEPES (1 mg/ml Fraction V BSA) and placed into embryonic cell development medium until 5 hours had elapsed. At 5 hours, a subsample of oocytes was removed and mounted to determine activation. The remaining oocytes were returned to the incubator for 7-8 days. Blastocytes on day 7-8 were rated as good or poor and cell number was determined.
Experiment 2b was similar in design except that oocytes were incubated for 2 hours, 3 hours, 4 hours, or 5 hours in DMAP.

Test [3] has as its system 42-hour oocyte derived nuclear transfer (NT) embryos. In words: Development of 42-hour oocyte derived nuclear transfer embryos. Particulars: 1.9 mM DMAP with room temperature activation (RTC) 2 hours; 140 NTs to culture; 6 to 7 days. The class given is cell-based, bovine. Here is the method:
Bovine oocytes were obtained and placed in maturation media for approximately 20 hours. The cumulus cells were then stripped off the oocytes according to the previously described procedures.
The oocytes were then enucleated according to Prather et al. and placed in CR1aa maturation medium until 40 hours had elapsed. The oocyte were then placed in CR1aa maturation medium with 1.9 mM DMAP for 2 hours and incubated at room temperature activation (RTC) conditions (about 25° C.).
Following incubation, embryonic cells were transferred into the oocytes and the 2 cells were electrically fused together according to the procedures described in Prather et al., with the exception of the step of waiting until 42 hours to activate via RTC (25° C.) and adding DMAP prior to the time of electrofusion. The fused nuclear transfer embryos were then cultured in maturation medium CR1aa for 6 to 7 days to determine developmental rates to the blastocyst stage.

For test [4], the system named is 20-hours oocytes derived nuclear transfers. In words: Development of 20-hour oocyte derived nuclear transfers (fused after activation). The class given is cell-based, bovine. Particulars: treatment at 20 hours maturation after enucleation, 4 hours DMAP with or without ionomycin 5 μM 4 min. Here is the method:
This experiment was conducted under similar conditions as Experiment 6 with the exception that the oocytes were either placed directly in DMAP (young oocytes) or given in ionomycin (5 μM) treatment for 4 minutes plus DMAP treatment immediately after enucleation, i.e., at 20 hours maturation. At the end of the DMAP treatment, approximately 24 hours, embryonic cells were transferred into the oocytes and electrofusion was induced. The concentration of activating chemicals used were the same as those described in Experiment 6. The embryos were placed in maturation medium CR1aa for 6 to 7 days to determine developmental rates to blastocyst stage.

Where [5] appears, read: Experiment 3, FIG. 2, time after exposure to ionomycin.

The values below come from patent publication US6680199B1, “In vitro activation of mammalian oocytes” (Infigen, Inc., priority 1993, dated 2004).

SMILES strings stand for the structures. Marks after values point to notes of the source that are not given here.

As to `CN(C)c1ncnc2nc[nH]c12` [DMAP, 6-dimethylaminopurine], in test [1], the “Activation of oocytes, result in words” value was “did not activate the oocytes”; the “Chromosome / pronuclear outcome, result in words” value is given as “caused the chromosomes to form a tight clump in the cytoplasm”; the “% Activation” value is listed as 7.8 ± 5.5^a %; the “% Pronuclear formation” value is on record as 7.8 ± 5.5^a %. Also, the “Effect of interval from ionomycin treatment to exposure to DMAP, result in words” value in test [1] (Experiment 4, FIG. 3, interval more than 1 hour, mounted 5 hours post ionomycin) is recorded as “increase in ability to resume meiosis”. Besides, the “Development to Blastocyst (± se)” value in test [2] (Experiment 2b, DMAP incubation 0 h (ionomycin alone)) is listed as 0^a %. For the same compound, the “Development to Blastocyst (± se)” value in test [2] (6-DMAP 1.9 mM incubation 15 min) is on record as 0^a %. In addition, the “Development to Blastocyst (± se)” value in test [2] (6-DMAP 1.9 mM incubation 30 min) is 0^a %. In addition, in test [2] (6-DMAP incubation 0 min (ionomycin alone)), the “Development to Blastocyst (± se)” value is 0^a %. The “cell number in resulting parthenote blastocysts, Good” value (“cell number … Good” below) in test [2] (DMAP incubation 2 h) is 88.7. In test [2] (DMAP incubation 3 h), the “cell number … Good” value is listed as 70.1 and the “cell number in resulting parthenote blastocysts, Poor” value (“cell number … Poor” below) came to 33.1. For the same compound, in test [2] (DMAP incubation 4 h), the “cell number … Good” value came to 73.6 and the “cell number … Poor” value turned out to be 40.1. In test [2] (DMAP incubation 5 h), the “cell number … Good” value stood at 83.7 and the “cell number … Poor” value is 44. Further, in test [3], the “Number Blastocyst” value is recorded as 40; the “Number Blastocyst, percent” value was 29%; the “Number Usable Blastocyst” value is 18; the “Number Usable Blastocyst, percent” value came to 13%. For the same compound, in test [4] (cultured 6 to 7 days), the “% Usable” value was 0% and the “Development Rate to Blastocyst” value was 0%. For the same compound, the “Cleavage Rate” value in test [4] (fused after activation) is listed as 4%.
As for `C[C@H](CCC(=O)O)C[C@H](C)C[C@H](C)C(=O)/C=C(\O)[C@H](C)C[C@H](C)C/C=C/[C@@H](C)[C@@H](O)[C@@H](C)[C@@H](O)C[C@@H]1CC[C@@](C)([C@H]2CC[C@@](C)([C@@H](C)O)O2)O1` [Ionomycin, ionomycin], in test [1], the “Activation of oocytes, result in words” value is “activated the oocytes to a high level”; the “Chromosome / pronuclear outcome, result in words” value was “instead of forming pronuclei the chromosomes reassembled into a metaphase plate”; the “% Activation” value is on record as 57.8 ± 7.8^b %; the “% Pronuclear formation” value is 8.9 ± 7.3^a %. Moreover, in test [1] (setting [5]), the “Time by which oocytes had resumed meiosis” value is not above 1 h and the “Time by which oocytes were arrested in metaphase III” value was in the range of 4 to 5 h.
